Measured values reported in patent US4623641A, “Method of treating ulcers and erosions in the gastrointestinal system using PGI2 -methyl ester-beta cyclodextrin inclusion complexes” (Chinoin Gyogyszer es Vegyeszeti Termekek Gyara R.T., priority 1985, dated 1986).

How the values were obtained:
[1] = tested on: stress ulcer; assay: Stress ulcer test (immobilized rats, ulcer index); assay type: in vivo, female wistar rats; conditions: for U.I. (delta %): control = 100
Method: For the following tests 200-250 g female wistar rats were fasted for 24 hours before the experiment. Water was given ad libium. A. STRESS ULCER TEST The rats were immobilized on their backs for 24 hours. After immobilization the animals were killed, and their stomachs were prepared for ulcer analysis. The gastric cytoprotective effect of PCCD was tested by administering it in the following way: Case A: At 0, 6th, 12th and 18th hour after the immobilization. Administrations were carried out both ip and per os. In both cases the animals were killed and their stomachs prepared for ulcer analysis. In each experiment the ulcer index was calculated. In the calculation of the U.I., each mm^2 of ulcer or erosion is 1 point. Bleeding results in an additional 5 points. Perforation means an additional 10 points. The number of animals is (n=20) in each group. Mean (%)±S.E.M. is calculated. Statistical analysis is done according to the Student's T-Test. Significance level, p is less than 0.05.

[2] = tested on: gastric lesions on the corpus mucosa; assay: Gastric cytoprotective test (ethanol-induced gastric lesions, A. Robert); assay type: in vivo, rats; conditions: for ED50: Rattus norvegicus, PCCD values relate to active ingredient
Method: For the following tests 200-250 g female wistar rats were fasted for 24 hours before the experiment. Water was given ad libium.
C. GASTRIC CYTOPROTECTIVE TEST
The following method according to the abovementioned reference was employed:
The cytoprotective substances were applied before giving ethanol p.o. or subcutaneously. As controls, prostacylin (PGI2) and PGE2 were used.
Evaluation was carried out by killing the animals and then removing their stomachs. The number of gastric lesions was determined in each case. The dose of the cytoprotective compounds giving a 50% inhibiting effect was determined. The number of gastric erosions in the stomachs of animals not treated with a cytoprotective agent was designated 100%.

[3] = tested on: gastric mucosa; conditions: in vivo; cited from earlier work
[4] = in vivo; cited from earlier work
[5] = Stability on oral application (acidic pH of the stomach); assay type: physicochemical; conditions: oral administration
[6] = 100 micrograms/kg i.p., PCCD data calculated for active ingredient

OC[C@H]1O[C@@H]2O[C@H]3[C@H](O)[C@@H](O)[C@@H](O[C@H]4[C@H](O)[C@@H](O)[C@@H](O[C@H]5[C@H](O)[C@@H](O)[C@@H](O[C@H]6[C@H](O)[C@@H](O)[C@@H](O[C@H]7[C@H](O)[C@@H](O)[C@@H](O[C@H]8[C@H](O)[C@@H](O)[C@@H](O[C@H]1[C@H](O)[C@H]2O)O[C@@H]8CO)O[C@@H]7CO)O[C@@H]6CO)O[C@@H]5CO)O[C@@H]4CO)O[C@@H]3CO [Beta-cyclodextrin]
U.I. ± S.E.M. ([1]; 5 mg/kg i.p.): 6.8 ± 2.15
U.I. (delta %) ([1]; 5 mg/kg i.p.): 77.9%

CN/C(=N/CCSCc1nc[nH]c1C)NC#N [Cimetidine]
U.I. ± S.E.M. ([1]; 10 mg/kg i.p.): 3.0 ± 1.08
U.I. (delta %) ([1]; 10 mg/kg i.p.): 38.9%
U.I. ± S.E.M. ([1]; 10 mg/kg p.o.): 2.82 ± 1.36
U.I. (delta %) ([1]; 10 mg/kg p.o.): 36.7%

CCCCC[C@H](O)/C=C/[C@H]1[C@H](O)CC(=O)[C@@H]1C/C=C\CCCC(=O)O [PGE2]
ED50 ([2]; po, orally): 0.03 mg/kg
ED50 ([2]; sc, subcutaneously): 0.1 mg/kg
cytoprotective effect compared with PGI2 ([2]; oral application): more effective
decreasing the blood loss of the gastric mucosa induced by non-steroidal antiphlogistics [3]: significantly effective
therapy of peptic ulcers [3]: significantly effective
side effects [4]: diarrhogen side effects

CCCCC[C@H](O)/C=C/[C@@H]1[C@H]2C/C(=C/CCCC(=O)O)O[C@H]2C[C@H]1O [PGI2, prostacyclin]
U.I. ± S.E.M. [1, 6]: 5.4 ± 1.54
U.I. (delta %) [1, 6]: 70.0%
stability compared with PGE2 [5]: more unstable than is PGE2
ED50 ([2]; po, orally): 1.8 mg/kg
ED50 ([2]; sc, subcutaneously): 0.04 mg/kg
cytoprotective effect compared with PGE2 ([2]; administered subcutaneously): stronger cytoprotective effect than PGE2

COc1ccc2c(c1)c(CC(=O)O)c(C)n2C(=O)c1ccc(Cl)cc1 [indomethacin]
side effects [4]: ulcerogenic side effects
